The values that follow come from patent publication US8597660B2, “Therapeutic approach to neurodegenerative disorders using a TFP5-peptide” (The United States of America, as represented by the …, priority 2010, dated 2013).

Entries after “also recorded” stand apart in the source; their conditions may differ.

The subject of one test is cleaved caspase-3. Put plainly: Cleaved caspase-3 Western blot in Aβ-treated cortical neurons. The conditions noted are these: Aβ 6 h; P5 infection or roscovitine. It counts as cell-based, rat. The procedure: Western blot analysis was performed as previously described (Zheng et al., Eur J Biochem 269(18), 4427-4434, 2002). In brief, an equal amount of total protein (20 μg/lane) was resolved on a 4-20% SDS polyacrylamide gel and blotted onto a polyvinylidene difluoride membrane. This membrane was incubated in blocking buffer containing 20 mM Tris-HCl (pH 7.4), 150 mM NaCl, and 0.1% (vol/vol) Tween 20 (TTBS) plus 5% dry milk (w/v) for 1 hour at room temperature followed by incubation overnight at 4° C. in primary antibodies (see antibodies). The membranes were then washed four times in TTBS (5 minutes/each) followed by incubation in secondary antibody (goat-antimouse or goat anti-rabbit IgG (H+L)-horseradish peroxidase (HRP) conjugate at a dilution of 1:3000) for 1 hour at room temperature. Western blots were analyzed using the Amersham Enhanced Chemiluminescence (ECL) kit following the manufacturer's instructions (GE Healthcare, Piscataway, N.J.).
(§1) To determine whether P5 inhibited neuronal apoptosis induced by Aβ, primary cortical neurons (5 days in culture (DIC)) were transfected with P5-GFP using Lipofectamine 2000. After 24 hours, cells were exposed to Aβ for 6 hours. The neurons were fixed and subjected to TUNEL staining, while P5 was visualized by (green fluorescent protein) GFP. […] The data are quantified in FIG. 5B. […] The data are quantified in FIG. 5D.

The next test has as its system cortical neurons. Put plainly: TUNEL assay of Aβ-induced apoptosis in cortical neurons. It counts as cell-based, rat. Conditions: neurons transfected with GFP-P5, Aβ 6 h. The procedure:
Primary cortical neuron cells were cultured for 5 days on glass coverslips coated with poly-L-lysine, and transfected with or without P5 using Lipofectamine 2000. After 24 hours, TUNEL staining was done according to the manufacturer's instructions. Cells were washed three times in PBS, fixed for 1 hour at room temperature in fresh 4% paraformaldehyde in PBS, and permeabilized (0.1% Triton X-100 in 0.1 sodium citrate) for 2 minutes on ice. After washing 2× with PBS, TUNEL reaction mixture (50 μl) was added and incubated in a humidified atmosphere at 37° C. for 1 hour. TUNEL staining and fluorescent images were visualized with a Zeiss LSM-510 laser-scanning confocal microscope. Images were processed and merged by Adobe Photoshop software.
as §1, with “5B. More than 85% of nontransfected neurons were apoptosis positive. […] Cortical neurons infected with or without P5 and treated with Aβ for 6 hours were assayed for cleaved caspase 3 by Western blot analysis (FIG. 5C). […].” for “5B.”

The target in the next test is Cdk5/P25 (Homo sapiens, UniProt Q00535). Put plainly: In vitro kinase (pad) assay of active Cdk5/P25 with histone H1 as substrate. Format: biochemical. The procedure:
(§2) Kinase assays were performed as previously described (Veeranna, et al., J Neurosci 18(11), 4008-4021, 1998). Briefly, 7 days in culture (7 DIC) primary rat cortical neurons were infected with P25, P35, Cdk5 wild-type, dominant negative-Cdk5 and P5 using the lentiviral gene delivery as described earlier. Cdk5 was immunoprecipitated using the polyclonal C8 antibody overnight at 4° C. and immunoglobulin isolated using Protein A sepharose beads for 2 hours at 4° C. Immunoprecipitates were washed three times with lysis buffer and then once with 1× kinase buffer containing 20 mM Tris-Cl pH 7.4, 1 mM EDTA, 1 mM EGTA, 10 mM MgCl2, 10 mM sodium fluoride and 1 mM sodium orthovanadate. Endogenous Cdks were immunoprecipitated from HEK 293 cells using their respective antibodies and treated as above. Kinase assays were performed in the same buffer containing 1 mM DTT, 0.1 mM ATP and 0.185 MBq [γ-32P] ATP with 20 μg of histone H1 as the substrate. Phosphorylation was performed in a final volume of […] incubated at 30° C. for 60 minutes, stopped by the addition of 10% SDS sample buffer and heating at 95° C. for 5 minutes. Samples were separated by SDS-PAGE, gels were stained with Coomassie, destained, dried and exposed to autoradiography. In pad assays, 25 μl aliquots of the incubation mixture were placed on a Whatman p80 paper square, washed and dried and placed in a scintillation vial for counting.
These are GST-P1 (E211-A277 of SEQ ID NO: 16), 67 amino acid residues; GST-P2 (M237-A277), 41 residues; GST-P3 (E221-L267 of SEQ ID NO: 16), 47 residues; GST-P4 (E221-L249 of SEQ ID NO: 16), 29 residues and GST-P5 (K254-A277 of SEQ ID NO: 16) 24 residues. Each was incubated with active Cdk5/P25 in a kinase assay in vitro. […] FIG. 10 provides a comparison of P5 and CIP, relative to P35.
In a dose-dependent kinase assay the effective inhibitory concentration of P5 for both the Cdk5/P25 and Cdk5/P35 complexes was evaluated. His-P5 peptide was added at different concentrations to the in vitro assay containing 100 μM [γ32-P] ATP and histone H1. Inhibition increased progressively with increasing P5 concentration in both complexes (Compare FIGS. 2A, 2B with 2C, 2D).
P5, a 24 amino acid peptide derived from Cdk5 regulator p35, was modified by conjugating it with TAT PTD at the C-terminal end and with FITC (using a GGG linker) at the N-terminus to produce a fluorescent (FITC-labeled) TFP5 (SEQ ID NO: 2) peptide. In a dose-dependent kinase assay the effective inhibitory concentration of TFP5 for both the Cdk5/P25 and Cdk5/P35 complexes was evaluated. His-P5 peptide was added at different concentrations to the in vitro assay containing 100 μM [γ32-P] ATP and histone H1. […] Data represent means of four independent experiments with error bars representing SEM (*p≦0.05, **p≦0.001).

The test system of test [1] is Cdc2, Cdk2, Cdk4, and Cdk6. Put plainly: Kinase pad assay on Cdk immunoprecipitates of untreated HEK293 lysates with added P5 peptide. It counts as biochemical, human. The conditions noted are these: P5 peptide up to 1.8 μM; roscovitine 20 μM. As for the experimental part:
as §2, with “Briefly,” for “Kinase assays were performed as previously described (Veeranna, et al., J Neurosci 18(11), 4008-4021, 1998). Briefly,”, “Kinase assays were performed in the same buffer containing 1 mM DTT, 0.1 mM ATP and 0.185 MBq [γ-32P]” left out

Sequence of Cdk5/P25 (Q00535 whole entry, species assumed): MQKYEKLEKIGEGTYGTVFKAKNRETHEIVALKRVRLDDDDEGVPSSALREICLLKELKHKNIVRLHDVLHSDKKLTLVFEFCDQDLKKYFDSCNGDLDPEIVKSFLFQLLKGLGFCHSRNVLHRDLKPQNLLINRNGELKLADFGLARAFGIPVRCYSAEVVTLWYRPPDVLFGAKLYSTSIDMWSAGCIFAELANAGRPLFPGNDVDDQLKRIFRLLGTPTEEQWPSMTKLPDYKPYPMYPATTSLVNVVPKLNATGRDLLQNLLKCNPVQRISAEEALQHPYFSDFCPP

As to “P5: 24 residue peptide derived from Cdk5 activator P35 (K254-A277 of SEQ ID NO: 16); Cdk5 inhibitory peptide (KEAFWDRCLSVINLMSSKMLQINA; listed as Homo sapiens)”, the “Cleaved caspase-3 expression” value with cleaved caspase-3 is recorded as “marked reduction in cleaved caspase 3 expression; also recorded: reduced to control EV levels; also recorded: significantly rescued cortical neurons from apoptosis”. For the same substance, the “Aβ-induced apoptosis (TUNEL)” value with cortical neurons was “virtually all P5 transfected cells were protected from Aβ-induced apoptosis; also recorded: clearly inhibited Aβ-mediated neuronal apoptosis”. Further, the “Inhibition of Cdk5/P25 activity” value with Cdk5/P25 (0.7 μM P5) is listed as “approximately 70%”. Moreover, in the test with Cdk5/P25 (in vitro (test tube) assay, 0.05 to 1.2 μM), the “Specificity of inhibition, Cdk5/P25 versus Cdk5/P35” value is listed as “equally inhibits each Cdk5 complex in a dose-dependent manner; also recorded: not specific for Cdk5/P25; also recorded: non-specific in vitro”. Also, in the test with Cdk5/P25 (in vitro kinase assay, histone H1, FIG. 1), the “Inhibition of Cdk5/P25 activity, comparison among peptides and CIP” value is listed as “most effective inhibitor of Cdk5/P25; also recorded: more effective inhibitors of Cdk5/P25 activity than CIP”. Besides, the “Inhibition of cell cycle Cdk activities in vitro” value in test [1] was “virtually no inhibition; also recorded: minimal inhibition of Cdc2 and Cdk4 activities”.
